Like-named read-outs stand apart in the source and are kept apart here.
Assays:
GRK2 [1] = target: T1, GRK2 (Homo sapiens, UniProt P25098, S670A); experiment: DSF retest (confirmation), GRK2; assay type: binding; settings: for GRK2 Tm: 0.2 mg mL^–1 kinase; for GRK2 ΔTm: relative to intrinsic melting point of the kinase
T1 construct: made in house
T1 sequence (P25098 1-689 S670A): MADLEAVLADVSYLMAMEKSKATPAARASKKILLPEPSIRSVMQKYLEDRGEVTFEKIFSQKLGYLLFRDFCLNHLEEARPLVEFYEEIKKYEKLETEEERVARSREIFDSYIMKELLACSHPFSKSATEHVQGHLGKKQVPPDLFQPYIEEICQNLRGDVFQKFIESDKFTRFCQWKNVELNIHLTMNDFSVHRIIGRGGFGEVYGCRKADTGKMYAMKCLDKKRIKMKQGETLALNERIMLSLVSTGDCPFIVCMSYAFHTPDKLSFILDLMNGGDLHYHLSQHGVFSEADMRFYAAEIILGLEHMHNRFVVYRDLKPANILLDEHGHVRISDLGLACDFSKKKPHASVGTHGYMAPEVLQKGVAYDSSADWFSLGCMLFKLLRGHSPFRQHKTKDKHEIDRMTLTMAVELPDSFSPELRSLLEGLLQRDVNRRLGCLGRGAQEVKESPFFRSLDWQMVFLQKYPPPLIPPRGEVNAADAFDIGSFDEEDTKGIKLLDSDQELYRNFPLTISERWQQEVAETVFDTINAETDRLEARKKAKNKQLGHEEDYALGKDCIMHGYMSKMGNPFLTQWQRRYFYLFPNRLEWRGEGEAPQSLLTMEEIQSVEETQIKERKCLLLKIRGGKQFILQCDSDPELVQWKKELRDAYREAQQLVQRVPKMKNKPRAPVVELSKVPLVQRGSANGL

224 kinases = system: 224 kinases; set-up: method as in ChEMBL database; settings: ref ChEMBL database, cited from earlier work
GRK5 [2] = target: T2, GRK5 (Bos taurus, UniProt P43249); experiment: DSF retest (confirmation), GRK5; assay type: binding, bovine; settings: for GRK5 Tm: 0.2 mg mL^–1 kinase; for GRK5 ΔTm: relative to intrinsic melting point of the kinase
T2 construct: when using full-length kinases as the receptor[37] instead of isolated kinase domains; made in house
T2 sequence (P43249 whole entry, the tested form may be a part): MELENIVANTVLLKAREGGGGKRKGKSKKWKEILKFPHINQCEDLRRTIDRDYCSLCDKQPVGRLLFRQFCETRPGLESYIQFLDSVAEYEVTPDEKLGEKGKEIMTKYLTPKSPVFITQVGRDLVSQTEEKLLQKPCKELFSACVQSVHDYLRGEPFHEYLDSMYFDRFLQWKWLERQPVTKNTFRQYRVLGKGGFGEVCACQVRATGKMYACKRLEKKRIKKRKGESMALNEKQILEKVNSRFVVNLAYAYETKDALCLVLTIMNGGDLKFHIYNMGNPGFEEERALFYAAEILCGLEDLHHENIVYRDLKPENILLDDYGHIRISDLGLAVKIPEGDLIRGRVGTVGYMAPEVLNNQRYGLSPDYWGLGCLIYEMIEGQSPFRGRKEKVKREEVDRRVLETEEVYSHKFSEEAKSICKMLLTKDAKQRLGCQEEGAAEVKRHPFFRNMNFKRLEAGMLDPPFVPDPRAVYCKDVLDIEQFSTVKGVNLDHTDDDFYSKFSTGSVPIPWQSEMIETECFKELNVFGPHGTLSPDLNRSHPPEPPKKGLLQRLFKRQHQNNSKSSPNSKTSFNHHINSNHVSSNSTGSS

PKA = target: T3, PKA (Mus musculus, UniProt P05132); experiment: PKA inhibition assay (ADP-Glo, CREBtide, 100 μM ATP); assay type: biochemical
T3 construct: His tag (inferred from pET15b vector and Ni-NTA column) (N); host or cells: E. coli Rosetta(DE3)pLysS

GRK1, 2, and 5 and PKA = experiment: Ssel selectivity score calculated from inhibition of GRK1, 2, 5 and PKA; settings: selectivity score from inhibition of GRK1, 2, 5 and PKA; <0.5 selective
GRK1 [3] = target: T4, GRK1 (Bos taurus, UniProt P28327); experiment: DSF retest (confirmation), GRK1; assay type: binding, bovine; settings: for GRK1 Tm: 0.2 mg mL^–1 kinase; for GRK1 ΔTm: relative to intrinsic melting point of the kinase
T4 construct: Bovine GRK1_1–535, bovine and human GRK2S670A; made in house
T4 sequence (P28327 1-535): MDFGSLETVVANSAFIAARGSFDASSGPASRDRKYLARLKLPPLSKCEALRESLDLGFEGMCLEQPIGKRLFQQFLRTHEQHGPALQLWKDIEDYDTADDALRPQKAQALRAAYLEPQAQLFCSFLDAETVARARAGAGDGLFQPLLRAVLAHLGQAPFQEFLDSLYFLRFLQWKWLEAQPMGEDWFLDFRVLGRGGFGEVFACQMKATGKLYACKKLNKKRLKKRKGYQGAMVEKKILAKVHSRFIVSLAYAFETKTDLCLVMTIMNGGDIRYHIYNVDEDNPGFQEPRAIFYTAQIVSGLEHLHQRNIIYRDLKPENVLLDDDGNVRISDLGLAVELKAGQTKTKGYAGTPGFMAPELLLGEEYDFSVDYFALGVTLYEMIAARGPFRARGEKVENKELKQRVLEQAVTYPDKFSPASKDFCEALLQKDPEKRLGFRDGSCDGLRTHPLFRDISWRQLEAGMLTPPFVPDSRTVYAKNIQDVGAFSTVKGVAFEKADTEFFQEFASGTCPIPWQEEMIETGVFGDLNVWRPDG

GRK2 [4] = target: T5, GRK2 (Bos taurus, UniProt P21146, S670A); experiment: In vitro phosphorylation assay (tubulin, 5 μM ATP), GRK2; assay type: biochemical, bovine; settings: for IC50: read-out: GRK2 log IC50 (converted)
T5 construct: made in house
T5 sequence (P21146 1-689 S670A): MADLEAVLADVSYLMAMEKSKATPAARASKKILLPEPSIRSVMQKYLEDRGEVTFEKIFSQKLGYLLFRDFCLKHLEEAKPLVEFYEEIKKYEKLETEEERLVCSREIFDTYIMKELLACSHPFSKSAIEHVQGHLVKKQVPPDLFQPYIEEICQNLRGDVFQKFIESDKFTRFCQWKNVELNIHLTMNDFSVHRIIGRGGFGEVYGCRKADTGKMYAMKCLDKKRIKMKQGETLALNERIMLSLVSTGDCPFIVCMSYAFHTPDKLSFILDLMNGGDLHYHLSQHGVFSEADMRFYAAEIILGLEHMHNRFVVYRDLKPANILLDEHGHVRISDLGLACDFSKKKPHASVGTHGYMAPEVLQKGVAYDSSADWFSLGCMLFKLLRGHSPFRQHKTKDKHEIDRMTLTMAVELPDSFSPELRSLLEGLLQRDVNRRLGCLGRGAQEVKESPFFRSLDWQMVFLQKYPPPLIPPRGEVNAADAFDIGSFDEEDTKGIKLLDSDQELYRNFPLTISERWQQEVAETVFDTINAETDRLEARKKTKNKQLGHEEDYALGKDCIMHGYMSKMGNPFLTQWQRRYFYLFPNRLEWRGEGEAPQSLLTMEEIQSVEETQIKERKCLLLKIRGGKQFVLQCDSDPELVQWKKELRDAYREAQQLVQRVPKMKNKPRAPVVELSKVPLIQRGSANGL

bovine GRK5 = target: T6, bovine GRK5 (Bos taurus, UniProt P43249); experiment: Primary DSF inhibitor screen, GRK5; assay type: binding; settings: for rank in the primary screen, GRK5: rank ordering of compounds in primary DSF screen
T6 construct: when using full-length kinases as the receptor[37] instead of isolated kinase domains; made in house
T6 sequence (P43249 whole entry, the tested form may be a part): as the sequence (P43249 whole entry, the tested form may be a part) above

GRK1 [5] = target: T4, GRK1; experiment: In vitro phosphorylation assay (tubulin, 5 μM ATP), GRK1; assay type: biochemical, bovine; settings: for IC50: read-out: GRK1 log IC50 (converted)
GRK5 [6] = target: T2, GRK5; experiment: In vitro phosphorylation assay (tubulin, 5 μM ATP), GRK5; assay type: biochemical, bovine; settings: for IC50: read-out: GRK5 log IC50 (converted)
protein kinase A (PKA) = target: T7, protein kinase A (PKA) (Mus musculus, UniProt P05132); experiment: DSF retest (confirmation), PKA; assay type: binding; settings: for PKA Tm: 0.2 mg mL^–1 kinase; for PKA ΔTm: relative to intrinsic melting point of the kinase
T7 construct: His tag (inferred from pET15b vector and Ni-NTA column) (N); host or cells: E. coli Rosetta(DE3)pLysS
Method: Fourteen compounds (Figure 1a–c), including all GRK2 hits except staurosporine, and the most stabilizing pyrrolopyrimidine-containing compounds were obtained from GSK and retested using DSF on GRKs representing each vertebrate subfamily (GRK1, 2, and 5) (Table 1). […] The ability of these compounds to shift the Tm of the related AGC family kinase member protein kinase A (PKA) was also assessed (Table 1). In no case was ΔTm greater for PKA than for one of the tested GRKs. […]. There was no correlation for GRK1 (Figure 2c).
DSF was conducted using a ThermoFluor plate reader (Johnson & Johnson) in a buffer containing 20 mM HEPES, pH 7.0, 5 mM MgCl2, 2 mM DTT, and 1 mM CHAPS with 0.2 mg mL^–1 final concentration of GRK or PKA and 100 μM 1-anilinonaphthalene-8-sulfonic acid.[14]

human GRK2S670A = target: T8, human GRK2S670A (Homo sapiens, UniProt P25098, S670A); experiment: Primary DSF (differential scanning fluorimetry) inhibitor screen, GRK2; assay type: binding; settings: 10 μM compound
T8 construct: when using full-length kinases as the receptor[37] instead of isolated kinase domains; made in house
T8 sequence (P25098 1-689 S670A): T1 sequence (P25098 1-689 S670A)

[7] = logarithm of IC50 (−3.3 corresponds to 0.5 mM, footnote c), 438 nM PKA, 100 μM ATP, CREBtide, read-out: PKA log IC50 (converted)
[8] = 10 μM compound, 2 μM kinase, relative to DMSO control, read-out: ΔTm, primary screen, GRK5
[9] = 10 μM compound, 2 μM kinase, relative to DMSO control

Structure (SMILES): CC1=C(C(=O)Nc2cc(Cl)c3[nH]ncc3c2)C(c2ccc(C(F)(F)F)cc2)CC(=O)N1 (centres unmarked) [GSK466317A]
- GRK2 Tm (GRK2 [1]): 45.0 °C
- GRK2 ΔTm (GRK2 [1]): 7.4 °C
- number of other AGC kinases inhibited by more than 50% (224 kinases; at 1 μM): more than 10
- GRK5 Tm (GRK5 [2]): 28.0 °C
- GRK5 ΔTm (GRK5 [2]): 1.3 °C
- IC50 (PKA; [7]): 12.6 µM
- IC50 (PKA; read-out: IC50 against PKA): < 100 µM
- Ssel (GRK1, 2, and 5 and PKA): 1.001
- GRK1 Tm (GRK1 [3]): 24.6 °C
- GRK1 ΔTm (GRK1 [3]): 4.7 °C
- less potent than GSK180736A against GRK2 (GRK2 [4]; relative to GSK180736A): 2 log
- GRK2 fold (increase in potency relative to paroxetine) (GRK2 [4]): 0.040 fold
- ΔTm at 10 µM (bovine GRK5; [8]): 3.48 °C
- GRK1 fold (increase in potency relative to paroxetine) (GRK1 [5]): 0 fold
- GRK5 fold (increase in potency relative to paroxetine) (GRK5 [6]): 3.2 fold
- PKA Tm (protein kinase A (PKA)): 50.6 °C
- PKA ΔTm (protein kinase A (PKA)): 5.2 °C
- ΔTm, primary screen, GRK2 (human GRK2S670A; 2 μM kinase, relative to DMSO control): 2.9 °C
- ΔTm at 10 µM (human GRK2S670A; 2 μM kinase, relative to DMSO control, read-out: ΔTm, primary screen, GRK2): 2.94 °C
- rank in the primary screen, GRK2 (human GRK2S670A; rank ordering of compounds in primary DSF screen): 8

Structure (SMILES): CC(C)COC(=O)c1ccc2c(c1)/C(=C/Nc1ccc(S(N)(=O)=O)cc1)C(=O)N2 [GW416981X]
- GRK2 Tm (GRK2 [1]): 40.4 °C
- GRK2 ΔTm (GRK2 [1]): 2.8 °C
- inhibition pattern in kinase cross-screening, in words (224 kinases): strong inhibition of many of the 221 kinases evaluated
- GRK5 Tm (GRK5 [2]): 28.7 °C
- GRK5 ΔTm (GRK5 [2]): 2.0 °C
- IC50 (PKA; [7]): > 501 µM
- Ssel (GRK1, 2, and 5 and PKA): 0.330
- GRK1 Tm (GRK1 [3]): 24.8 °C
- GRK1 ΔTm (GRK1 [3]): 4.9 °C
- IC50 (GRK2 [4]): > 1000 µM
- ΔTm at 10 µM (bovine GRK5; [8]): 6.71 °C
- rank in the primary screen, GRK5 (bovine GRK5; 10 μM compound): 15
- IC50 (GRK1 [5]): 1000 µM
- GRK1 fold (increase in potency relative to paroxetine) (GRK1 [5]): 0 fold
- IC50 (GRK5 [6]): 25.1 µM
- GRK5 fold (increase in potency relative to paroxetine) (GRK5 [6]): 5.0 fold
- PKA Tm (protein kinase A (PKA)): 47.7 °C
- PKA ΔTm (protein kinase A (PKA)): 2.3 °C

Structure (SMILES): Fc1cccc(COc2ccc(Nc3ncnc4cc(-c5ccc[nH]5)sc34)cc2Cl)c1 [GW693881A]
- GRK2 Tm (GRK2 [1]): 40.0 °C
- GRK2 ΔTm (GRK2 [1]): 2.5 °C
- inhibition pattern in kinase cross-screening, in words (224 kinases): strong inhibition of many of the 221 kinases evaluated
- GRK5 Tm (GRK5 [2]): 27.7 °C
- GRK5 ΔTm (GRK5 [2]): 0.9 °C
- IC50 (PKA; [7]): > 501 µM
- Ssel (GRK1, 2, and 5 and PKA): 1.005
- GRK1 Tm (GRK1 [3]): 24.8 °C
- GRK1 ΔTm (GRK1 [3]): 4.9 °C
- IC50 (GRK2 [4]): 200 µM
- GRK2 fold (increase in potency relative to paroxetine) (GRK2 [4]): 0.0063 fold
- ΔTm, primary screen, GRK5 (bovine GRK5; [9]): 6.9 °C
- ΔTm at 10 µM (bovine GRK5; [8]): 6.93 °C
- rank in the primary screen, GRK5 (bovine GRK5; 10 μM compound): 12
- IC50 (GRK1 [5]): > 1000 µM
- IC50 (GRK5 [6]): 100 µM
- GRK5 fold (increase in potency relative to paroxetine) (GRK5 [6]): 1.3 fold
- PKA Tm (protein kinase A (PKA)): 47.4 °C
- PKA ΔTm (protein kinase A (PKA)): 2.0 °C

Structure (SMILES): CN(c1ccc(NC(=O)Nc2ccc(OC(F)(F)F)cc2)cc1)c1ccnc(Nc2cccc(S(N)(=O)=O)c2)n1 [GW806742X]
- GRK2 Tm (GRK2 [1]): 36.4 °C
- GRK2 ΔTm (GRK2 [1]): –1.1 °C
- inhibition pattern in kinase cross-screening, in words (224 kinases): strong inhibition of many of the 221 kinases evaluated
- GRK5 Tm (GRK5 [2]): 27.1 °C
- GRK5 ΔTm (GRK5 [2]): 0.4 °C
- IC50 (PKA; [7]): > 501 µM
- Ssel (GRK1, 2, and 5 and PKA): 1.386
- GRK1 Tm (GRK1 [3]): 20.3 °C
- GRK1 ΔTm (GRK1 [3]): 0.4 °C
- IC50 (GRK2 [4]): > 1000 µM
- ΔTm, primary screen, GRK5 (bovine GRK5; [9]): 6.5 °C
- rank in the primary screen, GRK5 (bovine GRK5; 10 μM compound): 16
- ΔTm at 10 µM (bovine GRK5; read-out: ΔTm, primary screen, GRK5, 10 μM compound, 2 μM kinase, relative to DMSO control): 6.48 °C
- IC50 (GRK1 [5]): > 1000 µM
- IC50 (GRK5 [6]): > 1000 µM
- PKA Tm (protein kinase A (PKA)): 45.6 °C
- PKA ΔTm (protein kinase A (PKA)): 0.2 °C

— article PMC4301037, “Identification and Structure–Function Analysis of Subfamily Selective G Protein-Coupled Receptor Kinase Inhibitors” (ACS Chemical Biology, 2014)
